Values quoted from earlier work as cited in patent publication US20070292407A1, “Methods of treatment for meconium aspiration syndrome” (The Board of Trustees Operating Michigan State University, priority 2005, published 2007).

Conditions: in vitro; Burke et al., J Pediatr Surg 2002

For `CC(=O)N[C@@H](CS)C(=O)O` [N-Acetylcysteine, N-acetyl-L-cysteine], which “reduction of meconium viscosity” value is on record?
Its value is “significant reduction of meconium viscosity”.
